What was measured:
[1] = target: T1, Muscarinic acetylcholine receptor M2 (Homo sapiens, UniProt P08172); type: functional, cell-based
T1 sequence (P08172 whole entry): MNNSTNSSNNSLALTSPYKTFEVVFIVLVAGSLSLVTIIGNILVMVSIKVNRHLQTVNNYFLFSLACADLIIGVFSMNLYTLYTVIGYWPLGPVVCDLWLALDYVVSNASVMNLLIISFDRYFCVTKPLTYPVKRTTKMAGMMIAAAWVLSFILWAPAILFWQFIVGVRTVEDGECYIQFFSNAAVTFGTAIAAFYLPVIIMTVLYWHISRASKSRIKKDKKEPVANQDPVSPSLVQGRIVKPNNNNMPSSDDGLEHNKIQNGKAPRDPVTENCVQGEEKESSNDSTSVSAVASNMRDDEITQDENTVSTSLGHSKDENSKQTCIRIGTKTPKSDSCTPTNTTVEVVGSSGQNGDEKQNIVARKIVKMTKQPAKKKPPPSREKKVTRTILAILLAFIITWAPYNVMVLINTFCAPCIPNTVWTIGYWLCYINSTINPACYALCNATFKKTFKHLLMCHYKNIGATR

[2] = target: T2, Alpha-2A adrenergic receptor (Homo sapiens, UniProt P08913); type: functional, cell-based
T2 sequence (P08913 whole entry): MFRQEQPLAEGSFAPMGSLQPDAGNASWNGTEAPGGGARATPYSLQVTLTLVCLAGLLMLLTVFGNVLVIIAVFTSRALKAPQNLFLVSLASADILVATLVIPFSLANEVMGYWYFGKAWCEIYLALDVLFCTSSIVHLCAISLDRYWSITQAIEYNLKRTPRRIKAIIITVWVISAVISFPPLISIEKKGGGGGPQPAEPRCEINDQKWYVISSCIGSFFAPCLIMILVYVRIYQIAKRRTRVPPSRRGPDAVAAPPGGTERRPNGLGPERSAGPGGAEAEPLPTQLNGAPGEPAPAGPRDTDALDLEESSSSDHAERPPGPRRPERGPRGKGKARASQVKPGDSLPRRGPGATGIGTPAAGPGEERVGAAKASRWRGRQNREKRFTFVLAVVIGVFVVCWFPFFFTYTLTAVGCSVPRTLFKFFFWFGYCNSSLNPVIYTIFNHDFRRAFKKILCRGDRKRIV

[3] = target: D(1A) dopamine receptor (Homo sapiens, UniProt P21728); type: functional, cell-based
[4] = target: T3, 5-hydroxytryptamine receptor 1A (Homo sapiens, UniProt P08908); type: functional, cell-based
T3 sequence (P08908 whole entry): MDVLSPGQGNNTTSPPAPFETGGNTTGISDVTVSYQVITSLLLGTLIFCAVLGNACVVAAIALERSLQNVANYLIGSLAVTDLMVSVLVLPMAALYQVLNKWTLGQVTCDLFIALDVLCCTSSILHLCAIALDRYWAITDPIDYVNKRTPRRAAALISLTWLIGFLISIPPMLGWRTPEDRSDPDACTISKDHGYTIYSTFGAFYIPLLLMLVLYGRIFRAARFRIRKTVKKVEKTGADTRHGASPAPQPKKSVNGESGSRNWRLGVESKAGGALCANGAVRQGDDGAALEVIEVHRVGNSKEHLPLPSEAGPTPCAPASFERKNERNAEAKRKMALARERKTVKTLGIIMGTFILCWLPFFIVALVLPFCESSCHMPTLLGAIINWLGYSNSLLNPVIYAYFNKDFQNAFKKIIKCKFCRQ

[5] = target: Vasopressin V1a receptor (Homo sapiens, UniProt P37288)
[6] = target: Neuronal acetylcholine receptor subunit alpha-4 (Homo sapiens, UniProt P43681)
[7] = target: T4, 5-hydroxytryptamine receptor 3A (Homo sapiens, UniProt P46098); type: functional
T4 sequence (P46098 whole entry): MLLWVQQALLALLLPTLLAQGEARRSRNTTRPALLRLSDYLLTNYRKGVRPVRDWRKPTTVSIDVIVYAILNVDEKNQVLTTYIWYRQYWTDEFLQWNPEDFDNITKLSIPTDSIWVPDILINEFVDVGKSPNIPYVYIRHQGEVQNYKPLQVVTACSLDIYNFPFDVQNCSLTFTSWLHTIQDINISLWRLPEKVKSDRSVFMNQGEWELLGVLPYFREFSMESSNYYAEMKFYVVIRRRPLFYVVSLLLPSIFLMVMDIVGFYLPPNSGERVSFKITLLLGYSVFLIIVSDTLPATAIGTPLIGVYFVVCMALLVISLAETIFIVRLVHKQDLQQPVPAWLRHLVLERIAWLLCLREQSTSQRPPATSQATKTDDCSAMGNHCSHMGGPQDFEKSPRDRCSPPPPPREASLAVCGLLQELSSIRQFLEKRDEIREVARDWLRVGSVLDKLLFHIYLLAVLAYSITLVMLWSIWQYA

[8] = target: T5, Equilibrative nucleoside transporter 1 (Homo sapiens, UniProt Q99808)
T5 sequence (Q99808 whole entry): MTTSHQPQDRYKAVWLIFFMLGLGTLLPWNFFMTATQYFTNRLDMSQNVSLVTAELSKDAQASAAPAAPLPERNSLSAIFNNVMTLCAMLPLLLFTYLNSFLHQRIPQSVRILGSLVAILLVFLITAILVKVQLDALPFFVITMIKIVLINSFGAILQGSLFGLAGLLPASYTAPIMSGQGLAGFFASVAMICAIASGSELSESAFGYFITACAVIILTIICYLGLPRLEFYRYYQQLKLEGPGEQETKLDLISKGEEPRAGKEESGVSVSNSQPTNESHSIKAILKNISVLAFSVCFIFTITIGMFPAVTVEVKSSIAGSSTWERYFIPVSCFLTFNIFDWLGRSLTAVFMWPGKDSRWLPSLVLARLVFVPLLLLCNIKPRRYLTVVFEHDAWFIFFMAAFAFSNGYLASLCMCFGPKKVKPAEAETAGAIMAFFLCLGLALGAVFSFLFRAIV

[9] = target: Gamma-aminobutyric acid receptor subunit alpha-1 (Rattus norvegicus, UniProt P62813); type: functional
[10] = target: Voltage-dependent L-type calcium channel subunit alpha-1C (Rattus norvegicus, UniProt P22002); type: functional
[11] = target: Adenosine receptor A2a (Homo sapiens, UniProt P29274)
Also: assay procedure not described here.

Gamma-aminobutyric acid receptor subunit alpha-1, sequence (P62813 whole entry): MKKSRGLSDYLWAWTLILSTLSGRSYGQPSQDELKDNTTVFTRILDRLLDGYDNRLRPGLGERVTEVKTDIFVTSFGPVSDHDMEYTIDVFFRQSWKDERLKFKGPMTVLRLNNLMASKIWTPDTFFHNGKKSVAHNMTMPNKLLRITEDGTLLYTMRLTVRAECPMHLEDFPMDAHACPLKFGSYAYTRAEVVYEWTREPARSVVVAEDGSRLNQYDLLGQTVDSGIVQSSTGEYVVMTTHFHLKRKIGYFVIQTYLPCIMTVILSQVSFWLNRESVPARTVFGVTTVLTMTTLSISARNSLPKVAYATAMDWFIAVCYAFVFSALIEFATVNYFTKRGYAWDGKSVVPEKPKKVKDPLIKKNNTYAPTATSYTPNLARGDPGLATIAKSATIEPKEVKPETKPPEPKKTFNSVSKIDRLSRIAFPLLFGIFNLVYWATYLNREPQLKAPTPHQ
Neuronal acetylcholine receptor subunit alpha-4, sequence (P43681 whole entry): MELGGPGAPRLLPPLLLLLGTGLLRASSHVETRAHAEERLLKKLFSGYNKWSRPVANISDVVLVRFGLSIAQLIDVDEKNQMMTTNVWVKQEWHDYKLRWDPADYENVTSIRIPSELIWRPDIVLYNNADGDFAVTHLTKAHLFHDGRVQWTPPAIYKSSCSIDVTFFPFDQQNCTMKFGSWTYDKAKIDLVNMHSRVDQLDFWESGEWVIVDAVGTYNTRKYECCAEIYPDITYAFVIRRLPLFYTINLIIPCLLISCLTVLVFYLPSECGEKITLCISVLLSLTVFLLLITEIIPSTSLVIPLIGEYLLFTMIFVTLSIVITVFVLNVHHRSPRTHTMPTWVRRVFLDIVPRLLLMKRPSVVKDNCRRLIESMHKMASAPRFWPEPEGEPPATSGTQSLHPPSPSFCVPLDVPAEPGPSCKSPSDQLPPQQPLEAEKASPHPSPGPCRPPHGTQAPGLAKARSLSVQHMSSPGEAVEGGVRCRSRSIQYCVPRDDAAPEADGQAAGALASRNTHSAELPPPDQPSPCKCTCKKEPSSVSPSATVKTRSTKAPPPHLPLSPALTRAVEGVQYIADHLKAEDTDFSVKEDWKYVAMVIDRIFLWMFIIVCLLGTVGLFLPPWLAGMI
Adenosine receptor A2a, sequence (P29274 whole entry): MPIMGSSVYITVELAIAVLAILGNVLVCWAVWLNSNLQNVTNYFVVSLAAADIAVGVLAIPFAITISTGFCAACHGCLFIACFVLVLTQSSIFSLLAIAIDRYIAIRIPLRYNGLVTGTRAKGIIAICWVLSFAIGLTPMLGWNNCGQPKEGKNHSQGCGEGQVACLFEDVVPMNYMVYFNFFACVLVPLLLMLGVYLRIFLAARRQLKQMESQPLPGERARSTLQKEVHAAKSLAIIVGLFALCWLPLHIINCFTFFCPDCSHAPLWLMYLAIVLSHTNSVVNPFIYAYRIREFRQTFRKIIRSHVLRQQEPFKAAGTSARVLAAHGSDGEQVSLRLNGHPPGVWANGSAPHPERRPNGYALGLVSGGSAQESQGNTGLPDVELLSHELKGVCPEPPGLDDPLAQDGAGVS
D(1A) dopamine receptor, sequence (P21728 whole entry): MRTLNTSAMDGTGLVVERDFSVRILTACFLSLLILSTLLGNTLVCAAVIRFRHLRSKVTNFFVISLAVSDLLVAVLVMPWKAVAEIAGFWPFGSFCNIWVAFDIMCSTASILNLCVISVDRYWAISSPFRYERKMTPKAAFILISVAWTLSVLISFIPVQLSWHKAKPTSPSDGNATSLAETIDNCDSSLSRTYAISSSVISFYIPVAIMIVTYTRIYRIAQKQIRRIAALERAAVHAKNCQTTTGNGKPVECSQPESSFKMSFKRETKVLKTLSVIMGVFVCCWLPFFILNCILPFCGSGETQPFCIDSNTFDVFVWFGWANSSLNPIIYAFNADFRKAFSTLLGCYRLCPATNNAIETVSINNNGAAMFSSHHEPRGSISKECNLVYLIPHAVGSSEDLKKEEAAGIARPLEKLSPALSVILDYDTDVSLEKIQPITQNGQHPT
Voltage-dependent L-type calcium channel subunit alpha-1C, sequence (P22002 whole entry): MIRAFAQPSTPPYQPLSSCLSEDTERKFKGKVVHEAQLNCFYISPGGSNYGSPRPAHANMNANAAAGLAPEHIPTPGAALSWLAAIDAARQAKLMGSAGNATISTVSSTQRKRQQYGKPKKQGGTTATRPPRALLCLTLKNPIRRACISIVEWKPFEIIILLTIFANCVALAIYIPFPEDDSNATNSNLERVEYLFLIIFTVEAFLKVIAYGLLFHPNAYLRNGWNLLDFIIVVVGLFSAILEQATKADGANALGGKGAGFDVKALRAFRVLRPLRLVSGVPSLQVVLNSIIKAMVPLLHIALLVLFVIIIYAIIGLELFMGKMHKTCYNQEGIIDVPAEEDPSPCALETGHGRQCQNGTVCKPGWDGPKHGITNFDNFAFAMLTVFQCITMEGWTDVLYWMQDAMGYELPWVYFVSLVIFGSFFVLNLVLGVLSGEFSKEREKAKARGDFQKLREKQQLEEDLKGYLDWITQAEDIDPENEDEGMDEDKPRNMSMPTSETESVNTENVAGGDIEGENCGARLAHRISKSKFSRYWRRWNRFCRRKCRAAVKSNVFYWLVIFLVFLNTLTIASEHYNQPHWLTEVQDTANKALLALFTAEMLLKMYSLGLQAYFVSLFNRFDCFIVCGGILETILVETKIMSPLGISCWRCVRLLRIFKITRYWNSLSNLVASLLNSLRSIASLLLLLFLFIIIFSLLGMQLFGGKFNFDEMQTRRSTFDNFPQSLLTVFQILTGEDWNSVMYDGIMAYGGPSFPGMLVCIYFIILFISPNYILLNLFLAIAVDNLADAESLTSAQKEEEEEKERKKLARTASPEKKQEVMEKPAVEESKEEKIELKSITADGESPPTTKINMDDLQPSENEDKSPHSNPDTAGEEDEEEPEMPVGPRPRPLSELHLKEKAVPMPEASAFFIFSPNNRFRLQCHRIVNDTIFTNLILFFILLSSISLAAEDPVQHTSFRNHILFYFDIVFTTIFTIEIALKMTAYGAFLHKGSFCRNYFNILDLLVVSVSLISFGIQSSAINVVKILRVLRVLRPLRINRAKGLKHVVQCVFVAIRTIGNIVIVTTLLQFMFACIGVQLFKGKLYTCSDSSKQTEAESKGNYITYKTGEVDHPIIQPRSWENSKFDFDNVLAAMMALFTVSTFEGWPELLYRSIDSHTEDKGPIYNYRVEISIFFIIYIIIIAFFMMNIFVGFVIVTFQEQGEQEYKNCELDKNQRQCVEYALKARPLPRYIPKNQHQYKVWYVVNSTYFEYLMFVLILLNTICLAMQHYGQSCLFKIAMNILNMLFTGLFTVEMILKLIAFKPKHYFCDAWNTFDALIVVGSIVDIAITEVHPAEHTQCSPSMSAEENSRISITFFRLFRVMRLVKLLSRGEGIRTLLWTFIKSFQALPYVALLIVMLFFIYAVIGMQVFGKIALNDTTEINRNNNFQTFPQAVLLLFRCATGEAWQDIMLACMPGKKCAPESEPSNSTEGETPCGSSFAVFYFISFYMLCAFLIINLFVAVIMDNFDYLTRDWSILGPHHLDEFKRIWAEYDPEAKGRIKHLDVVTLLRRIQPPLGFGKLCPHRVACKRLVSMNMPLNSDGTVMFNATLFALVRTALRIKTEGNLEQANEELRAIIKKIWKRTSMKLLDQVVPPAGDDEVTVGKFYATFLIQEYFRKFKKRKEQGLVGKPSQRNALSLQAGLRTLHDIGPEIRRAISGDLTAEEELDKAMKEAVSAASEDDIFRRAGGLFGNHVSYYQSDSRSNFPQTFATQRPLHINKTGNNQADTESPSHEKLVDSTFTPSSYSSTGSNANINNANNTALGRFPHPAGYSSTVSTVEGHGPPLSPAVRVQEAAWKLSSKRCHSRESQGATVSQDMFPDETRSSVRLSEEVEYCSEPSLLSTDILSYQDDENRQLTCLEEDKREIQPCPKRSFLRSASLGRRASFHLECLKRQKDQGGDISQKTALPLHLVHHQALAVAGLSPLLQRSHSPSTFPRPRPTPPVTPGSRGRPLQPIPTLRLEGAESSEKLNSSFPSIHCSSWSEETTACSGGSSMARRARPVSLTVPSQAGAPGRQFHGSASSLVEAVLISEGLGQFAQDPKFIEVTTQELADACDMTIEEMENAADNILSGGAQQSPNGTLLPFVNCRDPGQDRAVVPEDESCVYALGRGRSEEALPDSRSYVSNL
Vasopressin V1a receptor, sequence (P37288 whole entry): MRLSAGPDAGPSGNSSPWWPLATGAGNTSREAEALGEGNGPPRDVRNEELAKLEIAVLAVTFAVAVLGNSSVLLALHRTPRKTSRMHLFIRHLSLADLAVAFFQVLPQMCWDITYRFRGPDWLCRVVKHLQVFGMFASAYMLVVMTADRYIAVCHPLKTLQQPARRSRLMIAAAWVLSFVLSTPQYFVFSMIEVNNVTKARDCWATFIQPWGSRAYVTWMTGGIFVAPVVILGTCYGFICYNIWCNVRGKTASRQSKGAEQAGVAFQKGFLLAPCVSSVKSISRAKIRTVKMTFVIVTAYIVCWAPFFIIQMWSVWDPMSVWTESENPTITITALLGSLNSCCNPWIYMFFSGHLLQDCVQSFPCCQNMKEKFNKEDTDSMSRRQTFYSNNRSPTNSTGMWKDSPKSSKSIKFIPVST

| SMILES | AC50 [1] | AC50 [2] | AC50 [3] | AC50 [4] | AC50 [5] | AC50 [6] | AC50 [7] | AC50 [8] | AC50 [9] | AC50 [10] | AC50 [11] |
| --- | --- | --- | --- | --- | --- | --- | --- | --- | --- | --- | --- |
| CCOC(=O)O[C@]1(C(=O)OCCl)CC[C@H]2[C@@H]3CCC4=CC(=O)C=C[C@]4(C)[C@H]3[C@@H](O)C[C@@]21C [LOTEPREDNOL ETABONATE] | > 30 µM | > 30 µM | > 30 µM | > 30 µM | > 30 µM | > 30 µM | > 30 µM | > 30 µM | > 30 µM | > 30 µM | > 30 µM |
| CCN(CC)CCNC(=O)c1cc(S(C)(=O)=O)ccc1OC [TIAPRIDE] | > 30 µM | > 30 µM | > 30 µM | > 30 µM | > 30 µM | > 30 µM | > 30 µM | > 30 µM | > 30 µM | > 30 µM | > 30 µM |
| CC(=O)O[C@H](CC(=O)[O-])C[N+](C)(C)C [ACETYLCARNITINE] | > 30 µM | > 30 µM | > 30 µM | > 30 µM | > 30 µM | > 30 µM | > 30 µM | > 30 µM | > 30 µM | > 30 µM | > 30 µM |
| CCCCCCCCCCCCCCCCCCCCCC(=O)Nc1ccn([C@@H]2O[C@H](CO)[C@@H](O)[C@@H]2O)c(=O)n1 [ENOCITABINE] | > 30 µM | > 30 µM | > 30 µM | > 30 µM | > 30 µM | > 30 µM | > 30 µM | > 30 µM | > 30 µM | > 30 µM | > 30 µM |
| O=C(O)c1ccccc1Nc1cc(Cl)ccc1C(=O)O [LOBENZARIT] | > 30 µM | > 30 µM | > 30 µM | > 30 µM | > 30 µM | > 30 µM | > 30 µM | > 30 µM | > 30 µM | > 30 µM | > 30 µM |
| C=C1/C(=C\C=C2/CCC[C@]3(C)[C@@H]([C@H](C)/C=C/[C@@H](O)C4CC4)CC[C@@H]23)C[C@@H](O)C[C@@H]1O [CALCIPOTRIENE] | > 30 µM | > 30 µM | > 30 µM | 27 µM | > 30 µM | > 30 µM | > 30 µM | > 30 µM | > 30 µM | > 30 µM | > 30 µM |
| COc1cc2c(cc1OC)C(CCc1ccc(Cl)cc1)N(C)CC2 (stereo not given) [METHOPHOLINE] | > 10 µM | > 10 µM | > 10 µM | > 10 µM | > 30 µM | > 30 µM | > 30 µM | > 30 µM | > 10 µM | > 10 µM | > 30 µM |
| CC(=O)OCC(=O)[C@@]1(O)[C@H](C)C[C@H]2[C@@H]3CCC4=CC(=O)C=C[C@]4(C)[C@@]3(F)[C@@H](O)C[C@@]21C [DEXAMETHASONE ACETATE] | > 10 µM | > 10 µM | > 10 µM | > 10 µM | > 30 µM | > 10 µM | > 30 µM | > 30 µM | > 10 µM | > 10 µM | > 30 µM |
| COc1ccc(-c2noc(CC(=O)O)c2-c2ccc(OC)cc2)cc1 [MOFEZOLAC] | > 30 µM | > 30 µM | > 30 µM | > 30 µM | > 30 µM | > 30 µM | > 30 µM | > 30 µM | > 30 µM | > 30 µM | > 30 µM |
| CCN(CC)C(=O)Nc1ccc(OCC(O)CNC(C)(C)C)c(C(C)=O)c1 (stereo not given) [CELIPROLOL] | > 30 µM | > 30 µM | > 30 µM | > 30 µM | > 30 µM | > 30 µM | > 30 µM | > 30 µM | > 30 µM | > 30 µM | > 30 µM |
| O=C1CN=C(c2ccccn2)c2cc(Br)ccc2N1 [BROMAZEPAM] | > 10 µM | > 10 µM | > 10 µM | > 10 µM | > 10 µM | > 10 µM | > 30 µM | > 10 µM | 0.11 µM | > 10 µM | > 10 µM |
| C[N@+]1(CCF)[C@@H]2CC[C@H]1C[C@@H](OC(=O)C(O)(c1ccccc1)c1ccccc1)C2 | 0.0145 µM | > 30 µM | > 30 µM | > 30 µM | > 30 µM | > 30 µM | > 30 µM | > 30 µM | > 30 µM | > 30 µM | > 30 µM |
| CC(=O)SC[C@@H](C)C(=O)N1CCC[C@H]1C(=O)N[C@@H](Cc1ccccc1)C(=O)O | > 30 µM | > 30 µM | > 30 µM | > 30 µM | > 30 µM | > 30 µM | > 30 µM | > 30 µM | > 30 µM | > 30 µM | > 30 µM |
| COc1ccc2nc3cc(Cl)ccc3c(Nc3cc(CN4CCCC4)c(O)c(CN4CCCC4)c3)c2n1 [PYRONARIDINE] | 15 µM | > 30 µM | > 30 µM | > 30 µM | > 30 µM | 26 µM | > 30 µM | 21 µM | > 30 µM | > 30 µM | > 30 µM |
| CC(=O)[C@@]1(O)CC[C@H]2[C@@H]3C=C(Cl)C4=CC(=O)[C@@H]5C[C@@H]5[C@]4(C)[C@H]3CC[C@@]21C [CYPROTERONE] | > 10 µM | > 10 µM | 2.07 µM | > 10 µM | > 10 µM | > 10 µM | > 30 µM | > 10 µM | > 10 µM | > 10 µM | > 10 µM |

Source: ChEMBL document CHEMBL5291721, “A preclinical secondary pharmacology resource illuminates target-adverse drug reaction associations of marketed drugs” (Nat Commun, 2023)
